Results published in PMC7456811, “Regulation of Melanocortin-4 Receptor Pharmacology by Two Isoforms of Melanocortin Receptor Accessory Protein 2 in Topmouth Culter (Culter alburnus)” (Frontiers in Endocrinology, 2020).
Marks after values point to notes of the source that are not given here.

Key:
[1] = system: caMC4R; test: Intracellular cAMP signaling (radioimmunoassay); assay type: cell-based, topmouth culter (Culter alburnus); conditions: for stimulation of intracellular cAMP, in words / EC50 / Rmax (cAMP): HEK293T cells; for EC50: cAMP RIA; for EC50 / Rmax (cAMP): mean ± SEM of at least three independent experiments; for Rmax (cAMP): hMC4R = 100
[2] = molecular target: caMC4R; test: Competitive ligand binding (125I-NDP-MSH displacement); conditions: displacement of 125I-NDP-MSH; for IC50: HEK293T cells, mean ± SEM of at least three independent experiments

EC50 ([1]; caMC4R) [nM] | IC50 [2] [nM] | Compound | stimulation of intracellular cAMP, in words ([1]; caMC4R) | Rmax (cAMP) ([1]; caMC4R) | binding affinity, in words [2] | EC50 and Rmax compared with hMC4R, in words ([1]; caMC4R versus hMC4R, cAMP) | allosteric agonism, in words ([1]; caMC4R, concluded from binding and cAMP data)
0.44 ± 0.24 | 4.87 ± 1.8 | [Nle^4, D-Phe^7]-α-MSH [NDP-MSH] | dose-dependently increased intracellular cAMP levels | 84.48 ± 8.28% |  |  | 
5.76 ± 1.62 | 442 ± 65.4 | CSCC[C@H](NC(=O)[C@H](CCCNC(=N)N)NC(=O)[C@H](Cc1ccc(O)cc1)NC(=O)[C@@H]1CCCN1C(=O)CNC(=O)[C@H](CCC(=O)O)NC(=O)[C@H](CC(=O)O)NC(=O)[C@H](CCCCN)NC(=O)[C@H](CCCCN)NC(=O)[C@H](CCC(=O)O)NC(=O)[C@H](C)N)C(=O)N[C@@H](CCC(=O)O)C(=O)N[C@@H](Cc1c[nH]cn1)C(=O)N[C@@H](Cc1ccccc1)C(=O)N[C@@H](CCCNC(=N)N)C(=O)N[C@@H](Cc1c[nH]c2ccccc12)C(=O)NCC(=O)N[C@@H](CO)C(=O)N1CCC[C@H]1C(=O)N1CCC[C@H]1C(=O)N[C@@H](CCCCN)C(=O)N[C@@H](CC(=O)O)C(=O)O [β-MSH, β-melanocyte-stimulating hormone] | dose-dependently increased intracellular cAMP levels | 167.74 ± 27.91% | significantly higher affinity to β-MSH than hMC4R |  | 
75.7 ± 10.6 |  | O=C(N[C@H](Cc1ccc(Cl)cc1)C(=O)N1CCC(Cn2cncn2)(C2CCCCC2)CC1)[C@H]1Cc2ccccc2CN1 [THIQ, N-[(3R)-1,2,3,4-Tetrahydroisoquinolinium-3-ylcarbonyl]-(1R)-1-(4-chlorobenzyl)-2-[4-cyclohexyl-4-(1H-1,2,4-triazol-1-ylmethyl)piperidin-1-yl]-2-oxoethylamine] | dose-dependently increased intracellular cAMP levels | 39.73 ± 1.37^b % | able to displace the ^125I-NDP-MSH bound with caMC4R | EC50 was significantly increased and Rmax was significantly decreased | not an allosteric agonist at caMC4R
